{"source": "paper PMC3714338", "about": "(Analytical biochemistry, 2013)", "target": "Mtb APR (adenosine 5′-phosphosulfate reductase; also MtbAPSR) (Mycobacterium tuberculosis, UniProt P9WIK3)", "sequence (P9WIK3 whole entry, looked up)": "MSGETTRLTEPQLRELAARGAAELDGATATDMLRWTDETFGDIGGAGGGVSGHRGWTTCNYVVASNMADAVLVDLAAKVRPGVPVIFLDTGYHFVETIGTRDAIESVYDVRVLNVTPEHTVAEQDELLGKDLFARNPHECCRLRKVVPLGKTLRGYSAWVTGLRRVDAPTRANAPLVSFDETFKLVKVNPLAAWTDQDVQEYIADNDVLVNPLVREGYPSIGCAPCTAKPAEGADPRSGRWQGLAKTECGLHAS", "experiment": "biochemical", "data": [{"compound": "Nc1ncnc2c1ncn2[C@@H]1O[C@H](COP(=O)(O)OP(=O)(O)O)[C@@H](O)[C@H]1O", "note": "[ADP]", "values": [{"measurement": "Ki", "value": "83 ± 0.2", "unit": "µM"}]}]}
